# Results taken from ChEMBL document CHEMBL5506003, “Design and biological evaluation of dual tubulin/HDAC inhibitors based on millepachine for treatment of prostate cancer” (Eur J Med Chem, 2024).
# Activity calls are given as the source filed them. No cut-off for these calls is given here.
# Assays:
# [1] = target: T1, Histone deacetylase 2 (Homo sapiens, UniProt Q92769); assay: Inhibition of HDAC2 in human HeLa nuclear extracts incubated for 30 mins by fluorescence based assay; type: cell-based
# T1 sequence (Q92769 whole entry): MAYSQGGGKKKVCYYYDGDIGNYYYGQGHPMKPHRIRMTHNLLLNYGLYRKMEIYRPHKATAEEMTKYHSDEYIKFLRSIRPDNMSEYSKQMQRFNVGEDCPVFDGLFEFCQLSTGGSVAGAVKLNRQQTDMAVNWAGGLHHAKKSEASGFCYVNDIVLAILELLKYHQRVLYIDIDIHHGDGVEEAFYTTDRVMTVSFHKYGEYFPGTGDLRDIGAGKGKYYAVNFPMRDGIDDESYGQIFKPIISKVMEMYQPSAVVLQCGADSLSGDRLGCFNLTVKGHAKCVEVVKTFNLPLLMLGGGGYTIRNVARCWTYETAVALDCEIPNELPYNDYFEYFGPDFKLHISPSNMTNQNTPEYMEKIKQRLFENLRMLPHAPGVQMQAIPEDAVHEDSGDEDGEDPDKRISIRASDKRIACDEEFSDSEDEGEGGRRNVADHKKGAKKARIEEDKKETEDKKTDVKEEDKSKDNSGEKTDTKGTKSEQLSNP
# [2] = system: PC-3; assay: Induction of apoptosis in human PC-3 cells assessed as upregulation of cleaved PARP expression at 0.08 to 0.32 uM by Western blotting analysis; type: functional, cell-based; settings: dose 0.08-0.32 µM
# [3] = system: PC-3; assay: Induction of apoptosis in human PC-3 cells assessed as early apoptotic cells at 0.08 uM incubated for 24 hrs by Annexin V-FITC and PI staining based flow cytometry (reference value: 1.32%); type: functional
# [4] = system: A549; assay: Inhibition of cell migration in human A549 cells incubated for 24 hrs by scratch wound healing method; type: functional, cell-based; settings: dose 0.4-1.6 µM
# [5] = AUC(0 to t) in Sprague-Dawley rat at 2 mg/kg, iv measured upto 24 hrs by HPLC-MS analysis; type: ADME, organism-based; settings: in vivo
# [6] = system: PC-3; assay: Induction of cell cycle arrest in human PC-3 cells assessed as decrease in phosphorylated Cdc2 at […] by Western blotting analysis; type: functional, cell-based; settings: dose 0.08-0.32 µM
# [7] = Toxicity in BALB/c nude mouse xenografted with human PC-3 cells assessed as lung damage at 10 to 20 mg/kg, iv administered every 2 days and measured after 3 weeks; type: organism-based; settings: in vivo, 504 h, dose 10-20 mg/kg
# [8] = system: PC-3; assay: Induction of cell cycle arrest in human PC-3 cells assessed as G2/M phase cells at 0.32 uM incubated for 24 hrs by PI staining based flow cytometry analysis (reference value: 12.83%); type: functional
# [9] = target: Tubulin (Homo sapiens) (UniProt P68371+Q9H4B7+P0DPH7+P68366+Q13509+Q71U36+P04350+Q3ZCM7+P07437+P68363+Q9BQE3+Q6PEY2+Q13885+Q9BVA1+Q9BUF5); assay: Binding affinity to tubulin colchicine binding site in human PC-3 cells assessed as reduction in beta-tubulin adduct formation at 5 uM preincubated for 2 hrs followed by EBI addition and measured after 1.5 hrs by Western blotting assay; type: cell-based; set-up: scale not given: the % may be the effect or the level left; settings: time 3.5 hrs
# [10] = target: Histone deacetylase 1 (Homo sapiens, UniProt Q13547); assay: Inhibition of HDAC1 in human PC-3 cells assessed as increase in acetylated Histone-H3 level incubated for 24 hrs by Western blotting assay; type: cell-based; settings: dose 0.08-0.32 µM
# Sequence of Histone deacetylase 1 (Q13547 whole entry): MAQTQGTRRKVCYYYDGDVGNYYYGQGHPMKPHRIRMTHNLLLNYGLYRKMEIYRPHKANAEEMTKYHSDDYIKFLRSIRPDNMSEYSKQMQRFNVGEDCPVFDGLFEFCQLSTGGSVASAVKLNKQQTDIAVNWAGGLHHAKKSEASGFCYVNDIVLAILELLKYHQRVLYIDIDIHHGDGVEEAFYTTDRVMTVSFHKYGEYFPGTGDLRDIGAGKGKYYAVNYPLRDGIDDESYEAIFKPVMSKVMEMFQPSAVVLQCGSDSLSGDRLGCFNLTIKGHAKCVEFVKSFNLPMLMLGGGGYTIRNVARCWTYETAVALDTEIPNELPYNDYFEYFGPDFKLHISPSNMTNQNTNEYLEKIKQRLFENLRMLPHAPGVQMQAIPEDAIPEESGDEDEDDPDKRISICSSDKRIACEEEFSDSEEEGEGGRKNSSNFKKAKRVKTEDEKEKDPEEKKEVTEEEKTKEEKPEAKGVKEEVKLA
# [11] = system: PC-3; assay: Induction of mitochondrial membrane potential loss in human PC-3 cells incubated for 24 hrs by JC-1 staining based flow cytometry analysis; type: functional, cell-based; settings: dose 0.08-0.32 µM
# [12] = system: PC-3; assay: Induction of apoptosis in human PC-3 cells assessed as late apoptotic cells at 0.16 uM incubated for 24 hrs by Annexin V-FITC and PI staining based flow cytometry (reference value: 1.02%); type: functional
# [13] = system: PC-3; assay: Induction of cell cycle arrest in human PC-3 cells assessed as S phase cells at 0.32 uM incubated for 24 hrs by PI staining based flow cytometry analysis (reference value: 31.7%); type: functional
# [14] = system: PC-3; assay: Induction of ROS generation in human PC-3 cells at 0.32 uM incubated for 24 hrs by DCFH-DA staining based flow cytometry analysis (reference value: 2.63%); type: functional
# [15] = Half-life in Sprague-Dawley rat at 2 mg/kg, iv measured upto 24 hrs by HPLC-MS analysis; type: ADME, organism-based; settings: in vivo
# [16] = target: T1, Histone deacetylase 2; assay: Inhibition of HDAC2 in human PC-3 cells assessed as increase in acetylated Histone-H3 level incubated for 24 hrs by Western blotting assay; type: cell-based; settings: dose 0.08-0.32 µM
# [17] = target: T2, Histone deacetylase 7 (Homo sapiens, UniProt Q8WUI4); assay: Inhibition of HDAC7 in human HeLa nuclear extracts incubated for 30 mins by fluorescence based assay; type: cell-free
# T2 sequence (Q8WUI4 whole entry): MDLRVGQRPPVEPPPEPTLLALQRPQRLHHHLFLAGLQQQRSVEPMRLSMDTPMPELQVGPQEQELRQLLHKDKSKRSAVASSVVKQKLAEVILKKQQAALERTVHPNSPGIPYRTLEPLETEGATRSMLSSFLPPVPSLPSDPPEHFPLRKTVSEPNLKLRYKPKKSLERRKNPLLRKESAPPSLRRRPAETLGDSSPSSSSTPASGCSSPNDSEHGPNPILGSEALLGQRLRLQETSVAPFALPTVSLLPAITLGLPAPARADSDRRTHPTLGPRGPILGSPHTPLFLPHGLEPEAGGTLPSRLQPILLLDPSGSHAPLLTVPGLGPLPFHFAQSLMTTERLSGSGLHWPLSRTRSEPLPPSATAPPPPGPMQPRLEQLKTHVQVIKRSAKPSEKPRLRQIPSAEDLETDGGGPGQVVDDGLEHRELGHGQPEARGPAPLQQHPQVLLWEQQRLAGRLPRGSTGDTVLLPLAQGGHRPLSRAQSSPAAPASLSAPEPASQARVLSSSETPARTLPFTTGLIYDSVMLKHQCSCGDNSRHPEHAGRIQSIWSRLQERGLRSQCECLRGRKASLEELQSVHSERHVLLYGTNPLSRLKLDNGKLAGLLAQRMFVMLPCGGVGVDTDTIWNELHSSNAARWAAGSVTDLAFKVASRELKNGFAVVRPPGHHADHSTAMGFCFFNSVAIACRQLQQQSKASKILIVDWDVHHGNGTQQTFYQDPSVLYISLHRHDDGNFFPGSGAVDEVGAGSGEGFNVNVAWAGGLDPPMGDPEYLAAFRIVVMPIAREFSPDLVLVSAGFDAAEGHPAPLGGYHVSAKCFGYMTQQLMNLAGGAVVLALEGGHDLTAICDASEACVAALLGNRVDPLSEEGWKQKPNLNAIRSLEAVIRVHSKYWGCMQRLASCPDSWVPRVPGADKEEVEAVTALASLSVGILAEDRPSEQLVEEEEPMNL
# [18] = MRT(0 to t) in Sprague-Dawley rat at 2 mg/kg, iv measured upto 24 hrs by HPLC-MS analysis; type: ADME, organism-based; settings: in vivo
# [19] = system: PC-3; assay: Induction of apoptosis in human PC-3 cells assessed as viable cells at 0.08 uM incubated for 24 hrs by Annexin V-FITC and PI staining based flow cytometry (reference value: 97.5%); type: functional; settings: read-out: Activity
# [20] = system: PC-3; assay: Antitumor activity against human PC-3 cells xenografted in BALB/c nude mouse assessed as tumor growth inhibition at 20 mg/kg, iv administered every 2 days and measured after 3 weeks; type: functional; settings: PC-3, 48 h, time 2 day, read-out: TGI
# [21] = system: PC-3; assay: Induction of ROS generation in human PC-3 cells at 0.16 uM incubated for 24 hrs by DCFH-DA staining based flow cytometry analysis (reference value: 2.63%); type: functional
# [22] = system: PC-3; assay: Induction of cell cycle arrest in human PC-3 cells assessed as G1 phase cells at 0.08 uM incubated for 24 hrs by PI staining based flow cytometry analysis (reference value: 56.17%); type: functional
# [23] = Volume of distribution at steady state in Sprague-Dawley rat at 2 mg/kg, iv measured upto 24 hrs by HPLC-MS analysis; type: ADME, organism-based; settings: in vivo, read-out: Vdss
# [24] = system: MCF7; assay: Cytotoxicity against human MCF7 cells incubated for 72 hrs by MTT assay; settings: MCF7, 72 h
# [25] = system: PC-3; assay: Induction of apoptosis in human PC-3 cells assessed as downregulation of Bcl-2 expression at 0.08 to 0.32 uM by Western blotting analysis; type: functional, cell-based; settings: dose 0.08-0.32 µM
compound,measurement,setting,value
COc1ccc(/C=C/C(=O)c2ccc(OC)c3c2OC(C)(C)C=C3)cc1NCC(=O)NO,IC50,[1],430 nM
same,Activity,[2],Active
same,Activity,[3],2.52%
same,inhibition,[4],Dose-Dependent Effect
same,AUCt,[5],9084 µg/L/h
same,Activity,[6],Active
same,Activity,[7],Non-Toxic
same,Activity,[8],82.04%
same,Activity,[9],100%
same,inhibition,[10],Dose-Dependent Effect
same,Activity,[11],Dose-Dependent Effect
same,Activity,[12],5.28%
same,Activity,[13],10.6%
same,Activity,[14],83.1%
same,half-life,[15],0.91 h
same,inhibition,[16],Dose-Dependent Effect
same,IC50,[17],2340 nM
same,MRT last at 24 h,[18],1.32 h
same,viability at 0.08 µM,[19],94.8%
same,inhibition in vivo at 20 mg/kg,[20],90.1%
same,Activity,[21],75.4%
same,Activity,[22],34.64%
same,Vd,[23],0.42 L/kg
same,IC50,[24],160 nM
same,Activity,[25],Active
